Assay results reported in patent US12350270B2, “Antimalarial agents” (Merck Sharp & Dohme LLC, priority 2019, dated 2025).

What was measured:
[1] = system: parasites (ring stage, in human red blood cell culture); experiment: Parasite LDH growth assay (antiparasite potency, Parasite Assay); assay type: cell-based, Plasmodium falciparum; conditions: 0.7% rings, 2% haematocrit, 72 hours at 37° C., LDH readout of parasite growth
How it was run: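 Growth was read by an LDH assay after a freeze–thaw cycle (−80 °C overnight, 4 h thaw at RT). Before that, parasites grew with compound for 72 h at 37 °C under gassed, humidified conditions. The input was a ring-stage culture adjusted to 0.7% parasitemia and 2% haematocrit in serum (5%)/albumax (0.5%)-supplemented RPMI-Hepes.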

PMX (plasmepsin X) = target: T1, PMX (plasmepsin X) (Plasmodium falciparum, UniProt Q8IAS0); conditions: negative control, literature (Salmon et al. 2001); cited from earlier work
T1 construct: endogenous in cells
T1 sequence (Q8IAS0 222-573): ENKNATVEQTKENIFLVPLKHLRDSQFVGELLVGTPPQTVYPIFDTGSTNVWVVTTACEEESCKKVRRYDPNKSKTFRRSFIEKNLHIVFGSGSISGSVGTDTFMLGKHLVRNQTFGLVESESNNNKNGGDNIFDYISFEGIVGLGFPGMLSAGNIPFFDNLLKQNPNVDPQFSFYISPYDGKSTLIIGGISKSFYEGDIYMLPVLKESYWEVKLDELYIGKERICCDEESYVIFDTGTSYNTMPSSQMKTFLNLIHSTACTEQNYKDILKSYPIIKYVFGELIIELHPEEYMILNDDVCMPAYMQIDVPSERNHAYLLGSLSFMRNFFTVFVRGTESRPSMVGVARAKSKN

PMIX (plasmepsin IX) = experiment: Inhibition of PMIX function in parasite extracts: cleavage of PMIX substrates RAP1 and ASP, and PMIX autoprocessing; assay type: cell-based, P. falciparum
Procedure: To confirm that Example 1 was a dual inhibitor of PMX and PMIX function, the ability of this compound to inhibit cleavage of the known PMIX substrate Rhoptry Associated Protein 1 (RAP1) in parasite extracts was tested (Pino et al., 2017). RAP1 is a merozoite rhoptry protein that is localized to the parasitophorous vacuole after invasion and processed by both PMIX and SUB1 (Pino et al., 2017). […] RAP1 was not released into the parasite supernatant because it was deposited in the parasitophorous vacuole during the invasion process (Baldi, D., Andrews, K., Waller, R., Roos, D., Howard, R., Crabb, B. and Cowman, A. (2000)). RAP1 controls rhoptry targeting of RAP2 in the malaria parasite Plasmodium falciparum. Embo Journal 19, 2435-2443.
The development of Example 1 as a PMIX/PMX dual inhibitor of the P. falciparum parasite has allowed for the analysis of the function of these aspartic acid proteases. To do this, PMIX was processed to a 55 kDa (p55) protein and this was not inhibited by E64.

[2] = Plasmodium falciparum, Erythrocyte, 72 h

Row | Compound | EC50 [1, 2] [nM] | further results
1 | CCC1(CC)CC(=O)N(C2c3cc(C(=O)N[C@@H]4c5ccccc5OC[C@@]4(C)O)ccc3OC2(COC)COC)C(=N)N1 (stereo partly drawn) [Example 305, 3-(4,4-diethyl-2-imino-6-oxo-hexahydropyrimidin-l-yl)-N-[(3S,4R)-3-hydroxy-3-methyl-chroman-4-yl]-2,2-bis(methoxymethyl)-3H-benzofuran-5-carboxamide] | 75.8 | –
2 | CCC1(CC)CC(=O)N(C2CC(C(=O)N(C)C)Oc3ccc(C(=O)N[C@@H]4c5ccccc5OC(C)(C)[C@H]4O)cc32)C(=N)N1 (stereo partly drawn) [Example 306, 4-(4,4-diethyl-2-imino-6-oxo-hexahydropyrimidin-1-yl)-N6-[(3S,4R)-3-hydroxy-2,2-dimethyl-chroman-4-yl]-N2,N2-dimethyl-chromane-2,6-dicarboxamide] | 27.4 | –
3 | CCC1(CC)CC(=O)N([C@H]2c3cc(C(=O)N[C@@H]4c5ccccc5OC(C)(C)[C@H]4O)ccc3OC2(COC)COC)C(=N)N1 [Example 307] | 3.2 | –
4 | CCC1(CC)CC(=O)N([C@@H]2C[C@@H](CCCCCCN)Oc3ccc(C(=O)N[C@H]4CC(C)(C)Oc5ccccc54)cc32)C(=N)N1 [Example 308, (2R,4R)-2-(6-aminohexyl)-4-(4,4-diethyl-2-imino-6-oxo-hexahydropyrimidin-1-yl)-N-[(4S)-2,2-dimethylchroman-4-yl]chromane-6-carboxamide] | 40.5 | –
5 | CCC1(CC)CC(=O)N([C@@H]2C[C@@H](CCCCCCNC(C)=O)Oc3ccc(C(=O)N[C@H]4CC(C)(C)Oc5ccccc54)cc32)C(=N)N1 [Example 309, (2R,4R)-2-(6-acetamidohexyl)-4-(4,4-diethyl-2-imino-6-oxo-hexahydropyrimidin-l-yl)-N-[(4S)-2,2-dimethylchroman-4-yl]chromane-6-carboxamide] | 3.2 | –
6 | CCC1(CC)CC(=O)N([C@@H]2C[C@@H](COCCOCCOCCN)Oc3ccc(C(=O)N[C@H]4CC(C)(C)Oc5ccccc54)cc32)C(=N)N1 [Example 310, (2S,4R)-2-[2-[2-(2-aminoethoxy)ethoxy]ethoxymethyl]-4-(4,4-diethyl-2-imino-6-oxo-hexahydropyrimidin-1-yl)-N-[(4S)-2,2-dimethylchroman-4-yl]chromane-6-carboxamide] | 211 | –
7 | CCC1(CC)CC(=O)N([C@@H]2C[C@@H](CCCCCCNC(=O)OC(C)(C)C)Oc3ccc(C(=O)N[C@H]4CC(C)(C)Oc5ccccc54)cc32)C(=N)N1 [Example 311, tert-butyl N-[6-[(2R,4R)-4-(4,4-diethyl-2-imino-6-oxo-hexahydropyrimidin-1-yl)-6-[[(4S)-2,2-dimethylchroman-4-yl]carbamoyl]chroman-2-yl]hexyl]carbamate] | 2.4 | –
8 | CCC1(CC)CC(=O)N([C@@H]2C[C@@H](COCCOCCOCCNC(C)=O)Oc3ccc(C(=O)N[C@H]4CC(C)(C)Oc5ccccc54)cc32)C(=N)N1 [Example 312, (2S,4R)-2-[2-[2-(2-acetamidoethoxy)ethoxy]ethoxymethyl] -4-(4,4-diethyl-2-imino-6-oxo-hexahydropyrimidin-1-yl)-N-[(4S)-2,2-dimethylchroman-4-yl]chromane-6-carboxamide] | 53.9 | –
9 | CCC1(CC)CC(=O)N([C@H]2C[C@H](COCCOCCOCCNC(=O)OC(C)(C)C)Oc3ccc(C(=O)N[C@H]4CC(C)(C)Oc5ccccc54)cc32)C(=N)N1 [Example 313, tert-butyl N-[2-[2-[2-[[(2R,4S)-4-(4,4-diethyl-2-imino-6-oxo-hexahydropyrimidin-l-yl)-6-[[(4S)-2,2-dimethylchroman-4-yl]carbamoyl]chroman-2-yl]methoxy]ethoxy]ethoxy]ethyl]carbamate] | 260 | –
10 | CCC1(CC)CC(=O)N([C@@H]2C[C@@H](COCCOCCOCCNC(=O)OC(C)(C)C)Oc3ccc(C(=O)N[C@H]4CC(C)(C)Oc5ccccc54)cc32)C(=N)N1 [Example 314, tert-butyl N-[2-[2-[2-[[(2S,4R)-4-(4,4-diethyl-2-imino-6-oxo-hexahydropyrimidin-l-yl)-6-[[(4S)-2,2-dimethylchroman-4-yl]carbamoyl]chroman-2-yl]methoxy]ethoxy]ethoxy]ethyl]carbamate] | 7.3 | –
11 | CC(C)C[C@H](NC(=O)[C@H]1O[C@@H]1C(=O)O)C(=O)NCCCCN=C(N)N [Example E64] | – | SERAS processing (PMX (plasmepsin X)): does not affect SERAS processing; ASP cleavage (p87 to p47) by PMIX (PMIX (plasmepsin IX); treated parasites): processed into a 47 kDa polypeptide (p47); PMIX processing to 55 kDa (p55) protein (autocatalytic cleavage) (PMIX (plasmepsin IX); treated parasites): not inhibited; RAP1 processing (p87 to p82 and p69) by PMIX and SUB1 (PMIX (plasmepsin IX); treated parasites / merozoites): processed normally by PMIX and SUB1
12 | (4R)-4-(4,4-diethyl-2-imino-6- oxo-hexahydropyrimidin-1- yl)-N-[2-(hydroxymethyl)- methyl-3H-benzofuran-3- yl]chromane-6-carboxamide [Example 176B] | – | EC50 [1]: 7.8 nM
